Data reported in article PMC9090415, “Discovery of small molecule inhibitors of Plasmodium falciparum apicoplast DNA polymerase” (Journal of Enzyme Inhibition and Medicinal Chemistry, 2022).

Molecular target: P. falciparum apicoplast DNA polymerase (Pf-apPOL) (Plasmodium falciparum, UniProt Q8ILY1)
Experiment: Fluorescence-based high-throughput DNA polymerase assay (molecular beacon), primary screen and dose-response;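 as to % inhibition ApPOL 90': test concentration in µM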;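 as to % inhibition Apol 40': compound concentration given in µM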;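 as to % inhibition apPOL 180': test concentration in µM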
Type: biochemical
Settings: for DNA Pol: 90 min, 10 µM
How it was run: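 Single-point screening used 10 µM compound with 20 nM polymerase, 20 nM hairpin substrate and 6 µM dNTPs for 90 min at 25 °C. Confirmatory titrations (2.5–80 µM) followed fluorescence at three times, and IC50 was derived from a fit including a cooperativity term n.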

[1] = 'DNA Pol' of the 186 hits list (primary screen value)
[2] = first dose-response set, concentration 10

P. falciparum apicoplast DNA polymerase (Pf-apPOL), sequence (Q8ILY1 entry or part of it): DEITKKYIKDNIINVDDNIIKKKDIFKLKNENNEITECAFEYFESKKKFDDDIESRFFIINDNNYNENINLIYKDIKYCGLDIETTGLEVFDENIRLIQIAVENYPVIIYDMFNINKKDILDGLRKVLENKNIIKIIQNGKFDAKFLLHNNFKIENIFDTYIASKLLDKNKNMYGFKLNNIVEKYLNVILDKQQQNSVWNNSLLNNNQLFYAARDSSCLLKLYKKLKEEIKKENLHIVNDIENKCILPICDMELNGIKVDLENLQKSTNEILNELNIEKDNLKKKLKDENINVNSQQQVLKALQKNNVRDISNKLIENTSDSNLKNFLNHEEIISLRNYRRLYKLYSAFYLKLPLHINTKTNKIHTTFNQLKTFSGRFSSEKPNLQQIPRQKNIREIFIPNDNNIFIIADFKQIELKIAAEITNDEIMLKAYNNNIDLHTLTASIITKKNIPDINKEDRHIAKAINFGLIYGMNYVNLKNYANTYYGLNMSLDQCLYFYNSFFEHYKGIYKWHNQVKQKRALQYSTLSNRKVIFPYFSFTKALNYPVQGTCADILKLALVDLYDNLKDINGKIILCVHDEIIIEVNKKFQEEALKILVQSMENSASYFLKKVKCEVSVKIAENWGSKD

COc1ccc(C(=O)N2CCc3c(nc4cc(-c5ccccc5Cl)[nH]n4c3=O)C2)cn1 [Molecule 26, COc1ccc(cn1)C(=O)N1CCc2c(C1)nc1n(c2=O)[nH]c(c1)c1ccccc1Cl]
DNA Pol [1]: 36
DNA Pol (DNA Pol (primary screen value)): 36
% inhibition Apo pol 10' (DRC-1, concentration 2.5): 0.687%
% inhibition Apo pol 10' (DRC-1, concentration 5): 20%
% inhibition Apo pol 10' (DRC-1, concentration 10): 48%
% inhibition Apo pol 10' (DRC-1, concentration 20): 85%
% inhibition Apo pol 10' (DRC-1, concentration 40): 91%
% inhibition Apo pol 10' (DRC-1, concentration 80): 87%
% inhibition Apol 90' (DRC-1, concentration 2.5): -2.83%
% inhibition Apol 90' (DRC-1, concentration 5): 11%
% inhibition Apol 90' (DRC-1, concentration 10): 33%
% inhibition Apol 90' (DRC-1, concentration 20): 74%
% inhibition Apol 90' (DRC-1, concentration 40): 82%
% inhibition Apol 90' (DRC-1, concentration 80): 82%
% inhibition apPOL 180' (DRC-1, concentration 2.5): -5.33%
% inhibition apPOL 180' (DRC-1, concentration 5): 3.47%
% inhibition apPOL 180' (DRC-1, concentration 10): 20%
% inhibition apPOL 180' (DRC-1, concentration 20): 60%
% inhibition apPOL 180' (DRC-1, concentration 40): 70%
% inhibition apPOL 180' (DRC-1, concentration 80): 71%
% inhibition Apo pol 5' (DRC-2, concentration 2.5): 7%
% inhibition Apo pol 5' (DRC-2, concentration 5): 7%
% inhibition Apo pol 5' (DRC-2, concentration 10): 28%
% inhibition Apo pol 5' (DRC-2, concentration 20): 47%
% inhibition Apo pol 5' (DRC-2, concentration 40): 54%
% inhibition Apo pol 5' (DRC-2, concentration 80): 47%
% inhibition Apol 40' (DRC-2, concentration 2.5): 6.48%
% inhibition Apol 40' (DRC-2, concentration 5): 6.59%
% inhibition Apol 40' (DRC-2, concentration 10): 30%
% inhibition Apol 40' (DRC-2, concentration 20): 56%
% inhibition Apol 40' (DRC-2, concentration 40): 64%
% inhibition Apol 40' (DRC-2, concentration 80): 62%
% inhibition ApPOL 90' (DRC-2, concentration 2.5): 6%
% inhibition ApPOL 90' (DRC-2, concentration 5): 4.56%
% inhibition ApPOL 90' (DRC-2, concentration 10): 28%
% inhibition ApPOL 90' (DRC-2, concentration 20): 56%
% inhibition ApPOL 90' (DRC-2, concentration 40): 63%
% inhibition ApPOL 90' (DRC-2, concentration 80): 63%
% inhibition apPOL 180' (DRC-2, concentration 2.5): 3.22%
% inhibition apPOL 180' (DRC-2, concentration 5): 3%
% inhibition apPOL 180' (DRC-2, concentration 10): 20%
% inhibition apPOL 180' (DRC-2, concentration 20): 48%
% inhibition apPOL 180' (DRC-2, concentration 40): 55%
% inhibition apPOL 180' (DRC-2, concentration 80): 57%
% inhibition Apo pol 10' (first dose-response set, concentration 5): 20%
% inhibition Apo pol 10' [2]: 48%
% inhibition Apol 90' (first dose-response set, concentration 40): 82%
% inhibition Apol 90' (first dose-response set, concentration 80): 82%
% inhibition apPOL 180' [2]: 20%

Cl.NC(CO)C(=O)NNCc1ccc(O)c(O)c1O (stereo not shown) [KU0260493]
DNA Pol [1]: 84
DNA Pol (DNA Pol (primary screen value)): 84
% inhibition Apo pol 10' (DRC-1, concentration 2.5): 2.4672%
% inhibition Apo pol 10' (DRC-1, concentration 5): 2.015%
% inhibition Apo pol 10' (DRC-1, concentration 10): 15.4444%
% inhibition Apo pol 10' (DRC-1, concentration 20): 26.1922%
% inhibition Apo pol 10' (DRC-1, concentration 40): 36.4325%
% inhibition Apo pol 10' (DRC-1, concentration 80): 40.9646%
% inhibition Apol 90' (DRC-1, concentration 2.5): -5.483%
% inhibition Apol 90' (DRC-1, concentration 5): -0.705%
% inhibition Apol 90' (DRC-1, concentration 10): 31.8192%
% inhibition Apol 90' (DRC-1, concentration 20): 46.4998%
% inhibition Apol 90' (DRC-1, concentration 40): 57.8018%
% inhibition Apol 90' (DRC-1, concentration 80): 63.3107%
% inhibition apPOL 180' (DRC-1, concentration 2.5): -3.278%
% inhibition apPOL 180' (DRC-1, concentration 5): 12.5243%
% inhibition apPOL 180' (DRC-1, concentration 10): 43.7705%
% inhibition apPOL 180' (DRC-1, concentration 20): 57.9843%
% inhibition apPOL 180' (DRC-1, concentration 40): 66.1218%
% inhibition apPOL 180' (DRC-1, concentration 80): 68.6937%
% inhibition Apo pol 5' (DRC-2, concentration 2.5): -5.63%
% inhibition Apo pol 5' (DRC-2, concentration 5): 3.49%
% inhibition Apo pol 5' (DRC-2, concentration 10): 23%
% inhibition Apo pol 5' (DRC-2, concentration 20): 36%
% inhibition Apo pol 5' (DRC-2, concentration 40): 47%
% inhibition Apo pol 5' (DRC-2, concentration 80): 54%
% inhibition Apol 40' (DRC-2, concentration 2.5): -1.63%
% inhibition Apol 40' (DRC-2, concentration 5): 15%
% inhibition Apol 40' (DRC-2, concentration 10): 38%
% inhibition Apol 40' (DRC-2, concentration 20): 53%
% inhibition Apol 40' (DRC-2, concentration 40): 62%
% inhibition Apol 40' (DRC-2, concentration 80): 65%
% inhibition ApPOL 90' (DRC-2, concentration 2.5): 1.48%
% inhibition ApPOL 90' (DRC-2, concentration 5): 22%
% inhibition ApPOL 90' (DRC-2, concentration 10): 45%
% inhibition ApPOL 90' (DRC-2, concentration 20): 60%
% inhibition ApPOL 90' (DRC-2, concentration 40): 67%
% inhibition ApPOL 90' (DRC-2, concentration 80): 68%
% inhibition apPOL 180' (DRC-2, concentration 2.5): 11%
% inhibition apPOL 180' (DRC-2, concentration 5): 32%
% inhibition apPOL 180' (DRC-2, concentration 10): 53%
% inhibition apPOL 180' (DRC-2, concentration 20): 67%
% inhibition apPOL 180' (DRC-2, concentration 40): 71%
% inhibition apPOL 180' (DRC-2, concentration 80): 72%

CC(=O)c1cc2c(N)c(/C(N)=N/C#N)sc2nc1C [KU0015866]
DNA Pol [1]: 33
DNA Pol (DNA Pol (primary screen value)): 33
% inhibition Apo pol 10' (DRC-1, concentration 2.5): 6.515%
% inhibition Apo pol 10' (DRC-1, concentration 5): 12.7693%
% inhibition Apo pol 10' (DRC-1, concentration 10): 31.7983%
% inhibition Apo pol 10' (DRC-1, concentration 20): 44.0355%
% inhibition Apo pol 10' (DRC-1, concentration 40): 64.9344%
% inhibition Apo pol 10' (DRC-1, concentration 80): 81.2768%
% inhibition Apol 90' (DRC-1, concentration 2.5): -0.6957%
% inhibition Apol 90' (DRC-1, concentration 5): -1.631%
% inhibition Apol 90' (DRC-1, concentration 10): 8.506%
% inhibition Apol 90' (DRC-1, concentration 20): 14.7865%
% inhibition Apol 90' (DRC-1, concentration 40): 35.058%
% inhibition Apol 90' (DRC-1, concentration 80): 75.8739%
% inhibition apPOL 180' (DRC-1, concentration 2.5): -1.629%
% inhibition apPOL 180' (DRC-1, concentration 5): -5.477%
% inhibition apPOL 180' (DRC-1, concentration 10): 0.782%
% inhibition apPOL 180' (DRC-1, concentration 20): 3.3611%
% inhibition apPOL 180' (DRC-1, concentration 40): 18.0593%
% inhibition apPOL 180' (DRC-1, concentration 80): 70.7811%
% inhibition Apo pol 5' (DRC-2, concentration 2.5): 7%
% inhibition Apo pol 5' (DRC-2, concentration 5): 12%
% inhibition Apo pol 5' (DRC-2, concentration 10): 28%
% inhibition Apo pol 5' (DRC-2, concentration 20): 37%
% inhibition Apo pol 5' (DRC-2, concentration 40): 40%
% inhibition Apo pol 5' (DRC-2, concentration 80): 37%
% inhibition Apol 40' (DRC-2, concentration 2.5): 6%
% inhibition Apol 40' (DRC-2, concentration 5): 4.46%
% inhibition Apol 40' (DRC-2, concentration 10): 19%
% inhibition Apol 40' (DRC-2, concentration 20): 33%
% inhibition Apol 40' (DRC-2, concentration 40): 48%
% inhibition Apol 40' (DRC-2, concentration 80): 55%
% inhibition ApPOL 90' (DRC-2, concentration 2.5): 4.51%
% inhibition ApPOL 90' (DRC-2, concentration 5): 1.44%
% inhibition ApPOL 90' (DRC-2, concentration 10): 14%
% inhibition ApPOL 90' (DRC-2, concentration 20): 25%
% inhibition ApPOL 90' (DRC-2, concentration 40): 45%
% inhibition ApPOL 90' (DRC-2, concentration 80): 56%
% inhibition apPOL 180' (DRC-2, concentration 2.5): -4.65%
% inhibition apPOL 180' (DRC-2, concentration 5): -9%
% inhibition apPOL 180' (DRC-2, concentration 10): -0.253%
% inhibition apPOL 180' (DRC-2, concentration 20): 10%
% inhibition apPOL 180' (DRC-2, concentration 40): 34%
% inhibition apPOL 180' (DRC-2, concentration 80): 54%

CCCCC(=O)N1CCc2c(nc3cc(-c4ccccc4Cl)[nH]n3c2=O)C1 [Molecule 37, CCCCC(=O)N1CCc2c(C1)nc1n(c2=O)[nH]c(c1)c1ccccc1Cl]
DNA Pol ("DNA Pol" of the 186 hits list (screen value)): 43
% inhibition Apo pol 10' (DRC-1, concentration 2.5): 9.306%
% inhibition Apo pol 10' (DRC-1, concentration 5): 24.2361%
% inhibition Apo pol 10' (DRC-1, concentration 10): 50.6318%
% inhibition Apo pol 10' (DRC-1, concentration 20): 65.8539%
% inhibition Apo pol 10' (DRC-1, concentration 40): 79.9976%
% inhibition Apo pol 10' (DRC-1, concentration 80): 82.2007%
% inhibition Apol 90' (DRC-1, concentration 2.5): 2.3506%
% inhibition Apol 90' (DRC-1, concentration 5): 13.0098%
% inhibition Apol 90' (DRC-1, concentration 10): 36.7881%
% inhibition Apol 90' (DRC-1, concentration 20): 53.1884%
% inhibition Apol 90' (DRC-1, concentration 40): 71.0429%
% inhibition Apol 90' (DRC-1, concentration 80): 81.0911%
% inhibition apPOL 180' (DRC-1, concentration 2.5): -3.183%
% inhibition apPOL 180' (DRC-1, concentration 5): 4.447%
% inhibition apPOL 180' (DRC-1, concentration 10): 22.1273%
% inhibition apPOL 180' (DRC-1, concentration 20): 36.1098%
% inhibition apPOL 180' (DRC-1, concentration 40): 57.5163%
% inhibition apPOL 180' (DRC-1, concentration 80): 72.7607%
% inhibition Apo pol 5' (DRC-2, concentration 2.5): 11%
% inhibition Apo pol 5' (DRC-2, concentration 5): 13%
% inhibition Apo pol 5' (DRC-2, concentration 10): 29%
% inhibition Apo pol 5' (DRC-2, concentration 20): 33%
% inhibition Apo pol 5' (DRC-2, concentration 40): 46%
% inhibition Apo pol 5' (DRC-2, concentration 80): 35%
% inhibition Apol 40' (DRC-2, concentration 2.5): 13%
% inhibition Apol 40' (DRC-2, concentration 5): 15%
% inhibition Apol 40' (DRC-2, concentration 10): 33%
% inhibition Apol 40' (DRC-2, concentration 20): 38%
% inhibition Apol 40' (DRC-2, concentration 40): 62%
% inhibition Apol 40' (DRC-2, concentration 80): 62%
% inhibition ApPOL 90' (DRC-2, concentration 2.5): 12%
% inhibition ApPOL 90' (DRC-2, concentration 5): 13%
% inhibition ApPOL 90' (DRC-2, concentration 10): 30%
% inhibition ApPOL 90' (DRC-2, concentration 20): 35%
% inhibition ApPOL 90' (DRC-2, concentration 40): 63%
% inhibition ApPOL 90' (DRC-2, concentration 80): 68%
% inhibition apPOL 180' (DRC-2, concentration 2.5): 7%
% inhibition apPOL 180' (DRC-2, concentration 5): 8.42%
% inhibition apPOL 180' (DRC-2, concentration 10): 23%
% inhibition apPOL 180' (DRC-2, concentration 20): 23%
% inhibition apPOL 180' (DRC-2, concentration 40): 55%
% inhibition apPOL 180' (DRC-2, concentration 80): 68%
DNA Pol (primary screen value, DNA Pol): 43
